Structures can show the parent of a compound that is named as a salt.
Key:
[1] = test system: opioid dependent participants; test: Treatment of heroin addiction: adverse reactions and side effects; conditions: 10-day treatment
Procedure: (§1) 1.1. Subject selection criteria: 60 participants, in the range of 18-50 years of age, male or female, and opioid dependent as diagnosed according to the DSM-IV diagnostic criteria for opioid dependence.
(§2) 1.3. Grouping: 60 cases of participants were randomly divided into two groups according to the order of admission: the test group and the methadone control group.
(§3) The control group used methadone hydrochloride oral medication of 10 mg/10 ml each. Comparison method: according to the heroin-dependent self-restraining degree of 7-10 days, the treatment was designed to be 10 days long for both groups. […] The treatment concluded on day 10. Methadone control group was admitted 50-60 mg methadone on the first day; starting on day 2, the methadone dose was reduced by 10 mg per day each day; starting on day 6, the methadone dose was reduced by 2 mg per day each day. The treatment concluded on day 10. Supplementary drugs used in the two groups included normal doses of clonazepam tablets (clonazopam), alprazolam tablets (Alprazoli) once a day at night.
1.5.2. Recordation of adverse reactions: adverse reactions were evaluated in the withdrawal symptom measurement table, using a total of 10 indicators that include: dizziness, syncope, malaise, nausea, vomiting, sweating, dry mouth, drowsiness, blurred vision, disturbance of consciousness. The recordation was done each morning at 9:00.
(§4) 1.6. Statistical analysis of the two groups: the general characteristics, withdrawal symptoms, and anxiety symptoms of the two groups, were statistically analyzed using the t test, chi-square test and Fisher's Exact Test, using suitable software such as SPSS 7.0. The t test was applied to the symptom data of the two groups, and chi-square test or Fisher's Exact Test was applied to the count data.

[2] = test system: opioid dependent participants; test: Treatment of heroin addiction: clinical rating of withdrawal symptoms; format: in vivo, human
Text: as §1
Subject exclusion criteria: candidates with serious heart disease, liver or kidney dysfunction, mental illness, serious bodily weakness, or pregnant or lactating women were excluded.
as §2, §3
1.5.1. Clinical rating used indicators of withdrawal, which has 20 indicators including craving, anxiety, agitation, nausea, vomiting, hot face, chills, or alternating chills and fever, yawning, runny nose, tears, sweating, drowsiness, cutis anserina, tremors, bone and muscle pain, anorexia, abdominal pain, diarrhea, insomnia, and curled position. The rating was done daily on the day before the treatment and on each day during the treatment. The severity of withdrawal symptoms was scored as level 0-4 (five levels in total). Scoring for each participant was done at 9:00 am every day.
as §4

[3] = test system: opioid dependent participants; test: Treatment of heroin addiction: degree of anxiety by Hamilton Anxiety Scale (HAMA); format: in vivo, human; conditions: Day 5
Procedure: as §1, §2, §3
1.5.3. […]
1.6. Statistical analysis of the two groups: the general characteristics, withdrawal symptoms, and anxiety symptoms of the two groups, were statistically analyzed using the t test, chi-square test and Fisher's Exact Test, using suitable software such as SPSS 7.0. […]

## CCC(=O)C(CC(C)N(C)C)(c1ccccc1)c1ccccc1 (stereo not drawn) [Methadone, methadone hydrochloride]
[1]; count, 30 per group
  Adverse Reactions: Abdominal pain: 6
  Adverse Reactions: Chills: 7
  Adverse Reactions: Diarrhea: 3
  Adverse Reactions: Runny nose: 8
  Adverse Reactions: Tears: 8
[1]; heroin addiction study
  Side effects: dizziness, malaise, nausea, sweating and heart palpitations
[2]; Before treatment, 20 indicators scored level 0-4, 30 per group
  withdrawal symptoms (x ± s): 56.03 ± 1.80
[2]; Day 1 of treatment
  withdrawal symptoms (x ± s): 5.01 ± 0.83
[2]; Day 2 of treatment
  withdrawal symptoms (x ± s): 27.78 ± 1.40
[2]; Day 3 of treatment
  withdrawal symptoms (x ± s): 19.71 ± 1.13
[2]; Day 4 of treatment
  withdrawal symptoms (x ± s): 13.54 ± 1.01
[2]; Day 5 of treatment
  withdrawal symptoms (x ± s): 8.27 ± 0.28
[2]; Day 6 of treatment
  withdrawal symptoms (x ± s): 3.84 ± 0.06
[2]; Day 7 of treatment
  withdrawal symptoms (x ± s): 3.26 ± 0.27
[2]; Day 8 of treatment
  withdrawal symptoms (x ± s): 3.84 ± 0.07
[2]; Day 9 of treatment
  withdrawal symptoms (x ± s): 3.82 ± 0.18
[2]; Day 10 of treatment
  withdrawal symptoms (x ± s): 4.80 ± 0.11
[3]
  emotional changes measured by HAMA (x ± s): 8.83 ± 0.45
